Assay results as given in US20080031982A1 (Metaproteomics, LLC, priority 2006, published 2008).

Legend:
Test in all cases: KinaseProfiler Assay
CDK1/cyclinB = CDK1/cyclinB (Homo sapiens, UniProt P06493)
DAPK2 = DAPK2 (Homo sapiens, UniProt Q9UIK4)
ErbB4 = ErbB4 (Homo sapiens, UniProt Q15303)
Fes = Fes (Homo sapiens, UniProt P07332)
HIPK2 = HIPK2 (Homo sapiens, UniProt Q9H2X6)
IGF-1R = IGF-1R (Homo sapiens, UniProt P08069)
IR = IR (Homo sapiens, UniProt P06213)
MAPKAP-K2 = MAPKAP-K2 (Homo sapiens, UniProt P49137)
PKCβII = PKCβII (Homo sapiens, UniProt P05771)
TrkB = TrkB (Homo sapiens, UniProt Q16620)
TSSK2 = molecular target: T1, TSSK2 (Homo sapiens, UniProt Q96PF2)
T1 sequence (Q96PF2 1-358): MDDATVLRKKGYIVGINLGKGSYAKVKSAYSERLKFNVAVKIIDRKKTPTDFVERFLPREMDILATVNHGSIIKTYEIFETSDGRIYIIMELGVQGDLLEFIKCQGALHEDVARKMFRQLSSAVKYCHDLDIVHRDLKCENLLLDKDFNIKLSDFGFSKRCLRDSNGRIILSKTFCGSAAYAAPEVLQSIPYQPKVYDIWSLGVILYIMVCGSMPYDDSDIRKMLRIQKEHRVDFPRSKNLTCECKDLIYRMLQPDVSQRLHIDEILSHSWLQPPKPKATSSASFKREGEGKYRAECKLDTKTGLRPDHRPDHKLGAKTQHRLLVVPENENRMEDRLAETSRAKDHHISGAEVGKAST

cKit(D816H) = cKit(D816H) (Homo sapiens, UniProt P10721, D816H)
cKit(D816H), sequence (P10721 26-976 D816H): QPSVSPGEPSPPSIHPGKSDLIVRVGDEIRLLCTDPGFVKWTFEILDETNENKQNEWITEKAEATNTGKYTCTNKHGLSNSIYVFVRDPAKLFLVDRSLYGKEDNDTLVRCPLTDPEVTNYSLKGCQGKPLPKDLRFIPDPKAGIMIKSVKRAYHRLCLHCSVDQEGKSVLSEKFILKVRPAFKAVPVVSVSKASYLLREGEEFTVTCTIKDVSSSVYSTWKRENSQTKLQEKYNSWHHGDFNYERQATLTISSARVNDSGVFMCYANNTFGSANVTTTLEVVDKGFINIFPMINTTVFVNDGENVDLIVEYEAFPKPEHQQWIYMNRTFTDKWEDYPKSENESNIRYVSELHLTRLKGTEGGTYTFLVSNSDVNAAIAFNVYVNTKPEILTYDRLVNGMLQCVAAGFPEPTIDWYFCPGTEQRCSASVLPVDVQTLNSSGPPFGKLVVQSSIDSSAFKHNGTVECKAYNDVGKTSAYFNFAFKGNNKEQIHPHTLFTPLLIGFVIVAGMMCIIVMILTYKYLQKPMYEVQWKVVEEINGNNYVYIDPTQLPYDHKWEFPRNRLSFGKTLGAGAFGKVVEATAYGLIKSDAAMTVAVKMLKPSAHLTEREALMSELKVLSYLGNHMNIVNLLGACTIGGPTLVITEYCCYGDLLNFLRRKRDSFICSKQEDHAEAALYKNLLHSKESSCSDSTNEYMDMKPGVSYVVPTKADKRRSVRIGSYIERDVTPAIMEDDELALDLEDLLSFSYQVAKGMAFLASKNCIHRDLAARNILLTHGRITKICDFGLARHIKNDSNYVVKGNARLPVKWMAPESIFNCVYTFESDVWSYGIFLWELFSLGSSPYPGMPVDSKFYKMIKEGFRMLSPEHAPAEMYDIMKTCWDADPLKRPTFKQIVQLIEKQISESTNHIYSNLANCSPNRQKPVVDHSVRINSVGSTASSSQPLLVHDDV

PhKγ2 = molecular target: T2, PhKγ2 (Homo sapiens, UniProt P15735)
T2 sequence (P15735 1-406): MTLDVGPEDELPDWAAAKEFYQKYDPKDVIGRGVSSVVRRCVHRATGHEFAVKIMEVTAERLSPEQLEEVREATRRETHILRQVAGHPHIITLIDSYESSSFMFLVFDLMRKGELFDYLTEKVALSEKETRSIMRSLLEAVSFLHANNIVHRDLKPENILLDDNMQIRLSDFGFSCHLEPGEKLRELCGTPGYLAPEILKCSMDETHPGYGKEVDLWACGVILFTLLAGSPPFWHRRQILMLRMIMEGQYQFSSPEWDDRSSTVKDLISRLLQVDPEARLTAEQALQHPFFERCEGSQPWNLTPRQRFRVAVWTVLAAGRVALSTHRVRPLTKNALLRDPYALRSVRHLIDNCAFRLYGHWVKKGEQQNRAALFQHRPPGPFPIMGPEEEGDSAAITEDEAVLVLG

ErbB4, sequence (Q15303 26-1308): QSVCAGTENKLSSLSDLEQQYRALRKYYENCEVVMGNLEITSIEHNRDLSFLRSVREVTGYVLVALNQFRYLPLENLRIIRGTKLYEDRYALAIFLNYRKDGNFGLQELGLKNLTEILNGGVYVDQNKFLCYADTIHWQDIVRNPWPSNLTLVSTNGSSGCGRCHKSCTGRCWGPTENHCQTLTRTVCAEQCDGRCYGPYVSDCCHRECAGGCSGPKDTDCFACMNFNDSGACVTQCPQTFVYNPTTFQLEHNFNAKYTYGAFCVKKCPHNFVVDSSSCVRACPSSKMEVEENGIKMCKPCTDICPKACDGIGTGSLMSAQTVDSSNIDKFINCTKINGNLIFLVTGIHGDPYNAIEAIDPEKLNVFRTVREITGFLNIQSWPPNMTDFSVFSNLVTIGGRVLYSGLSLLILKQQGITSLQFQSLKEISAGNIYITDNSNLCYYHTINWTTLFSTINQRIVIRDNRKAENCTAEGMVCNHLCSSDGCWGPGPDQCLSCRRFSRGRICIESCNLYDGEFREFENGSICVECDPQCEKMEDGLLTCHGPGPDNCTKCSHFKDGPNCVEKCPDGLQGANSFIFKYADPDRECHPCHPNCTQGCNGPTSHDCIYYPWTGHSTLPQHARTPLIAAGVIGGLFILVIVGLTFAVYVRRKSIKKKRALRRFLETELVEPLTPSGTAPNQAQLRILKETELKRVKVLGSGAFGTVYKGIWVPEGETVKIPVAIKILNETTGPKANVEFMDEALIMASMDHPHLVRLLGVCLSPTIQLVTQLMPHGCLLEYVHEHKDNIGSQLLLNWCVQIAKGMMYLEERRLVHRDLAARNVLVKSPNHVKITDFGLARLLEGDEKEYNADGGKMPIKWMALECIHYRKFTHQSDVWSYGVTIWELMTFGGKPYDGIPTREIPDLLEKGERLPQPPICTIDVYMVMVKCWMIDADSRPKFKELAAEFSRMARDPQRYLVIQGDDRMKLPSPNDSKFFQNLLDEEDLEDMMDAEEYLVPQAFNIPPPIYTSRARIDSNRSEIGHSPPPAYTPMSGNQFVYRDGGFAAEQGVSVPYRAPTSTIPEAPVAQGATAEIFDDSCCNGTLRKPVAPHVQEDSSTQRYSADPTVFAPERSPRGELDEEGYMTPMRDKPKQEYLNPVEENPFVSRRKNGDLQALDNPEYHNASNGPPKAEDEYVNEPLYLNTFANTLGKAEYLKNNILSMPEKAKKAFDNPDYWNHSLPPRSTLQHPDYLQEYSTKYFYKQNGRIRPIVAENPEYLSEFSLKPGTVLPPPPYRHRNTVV
Fes, sequence (P07332 whole entry): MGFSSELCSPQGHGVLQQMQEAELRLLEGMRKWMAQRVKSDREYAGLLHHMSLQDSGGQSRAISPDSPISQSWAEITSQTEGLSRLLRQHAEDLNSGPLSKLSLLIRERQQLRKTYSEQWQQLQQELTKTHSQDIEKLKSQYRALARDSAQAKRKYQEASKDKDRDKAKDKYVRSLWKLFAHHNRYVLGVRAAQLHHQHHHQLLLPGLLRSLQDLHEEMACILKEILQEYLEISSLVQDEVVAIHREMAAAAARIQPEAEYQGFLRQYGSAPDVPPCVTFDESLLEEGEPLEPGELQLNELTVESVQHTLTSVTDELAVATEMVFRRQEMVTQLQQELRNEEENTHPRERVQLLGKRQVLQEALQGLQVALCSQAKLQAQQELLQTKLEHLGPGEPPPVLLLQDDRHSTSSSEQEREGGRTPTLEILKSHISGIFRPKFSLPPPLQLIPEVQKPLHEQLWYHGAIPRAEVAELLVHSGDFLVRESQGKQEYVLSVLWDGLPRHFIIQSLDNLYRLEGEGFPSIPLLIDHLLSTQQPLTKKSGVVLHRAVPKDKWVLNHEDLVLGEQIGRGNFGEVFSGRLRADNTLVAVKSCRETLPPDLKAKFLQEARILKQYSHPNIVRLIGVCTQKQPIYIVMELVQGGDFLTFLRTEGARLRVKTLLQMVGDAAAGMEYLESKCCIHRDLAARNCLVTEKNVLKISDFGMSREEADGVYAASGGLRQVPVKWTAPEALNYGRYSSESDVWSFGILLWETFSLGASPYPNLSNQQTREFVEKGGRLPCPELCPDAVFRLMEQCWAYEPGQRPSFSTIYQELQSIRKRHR
IGF-1R, sequence (P08069 31-1367): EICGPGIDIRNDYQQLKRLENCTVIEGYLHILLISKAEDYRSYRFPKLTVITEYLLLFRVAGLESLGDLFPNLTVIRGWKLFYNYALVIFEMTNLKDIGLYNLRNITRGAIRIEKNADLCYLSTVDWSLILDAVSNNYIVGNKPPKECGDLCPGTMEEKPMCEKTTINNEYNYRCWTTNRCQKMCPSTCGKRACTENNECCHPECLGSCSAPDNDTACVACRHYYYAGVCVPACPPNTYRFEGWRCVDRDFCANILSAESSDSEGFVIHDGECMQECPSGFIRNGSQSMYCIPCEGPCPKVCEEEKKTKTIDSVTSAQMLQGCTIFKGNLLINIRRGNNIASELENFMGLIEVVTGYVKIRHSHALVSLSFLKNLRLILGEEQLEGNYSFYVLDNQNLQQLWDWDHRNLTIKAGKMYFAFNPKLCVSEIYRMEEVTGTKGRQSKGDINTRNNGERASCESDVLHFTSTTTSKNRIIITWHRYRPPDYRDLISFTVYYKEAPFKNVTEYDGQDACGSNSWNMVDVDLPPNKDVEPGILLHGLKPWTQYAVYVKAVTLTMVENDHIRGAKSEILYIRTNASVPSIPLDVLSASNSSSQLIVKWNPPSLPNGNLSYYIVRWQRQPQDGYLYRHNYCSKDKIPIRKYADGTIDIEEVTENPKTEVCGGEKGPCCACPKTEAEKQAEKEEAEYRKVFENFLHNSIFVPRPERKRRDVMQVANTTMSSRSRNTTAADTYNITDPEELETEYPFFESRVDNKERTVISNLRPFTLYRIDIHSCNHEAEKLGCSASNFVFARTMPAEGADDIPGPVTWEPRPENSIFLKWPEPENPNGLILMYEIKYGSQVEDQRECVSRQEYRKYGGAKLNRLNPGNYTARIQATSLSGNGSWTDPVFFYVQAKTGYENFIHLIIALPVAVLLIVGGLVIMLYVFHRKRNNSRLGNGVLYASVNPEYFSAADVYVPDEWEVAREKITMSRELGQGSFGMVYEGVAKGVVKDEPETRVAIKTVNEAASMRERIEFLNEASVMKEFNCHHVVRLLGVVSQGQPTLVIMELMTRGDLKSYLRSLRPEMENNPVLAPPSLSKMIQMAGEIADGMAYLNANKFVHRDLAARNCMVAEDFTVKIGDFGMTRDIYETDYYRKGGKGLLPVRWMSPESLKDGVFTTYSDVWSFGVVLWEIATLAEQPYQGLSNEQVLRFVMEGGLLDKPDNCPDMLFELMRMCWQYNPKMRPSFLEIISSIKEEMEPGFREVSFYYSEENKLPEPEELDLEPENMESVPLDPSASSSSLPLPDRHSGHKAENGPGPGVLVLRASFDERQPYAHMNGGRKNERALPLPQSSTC
DAPK2, sequence (Q9UIK4 whole entry): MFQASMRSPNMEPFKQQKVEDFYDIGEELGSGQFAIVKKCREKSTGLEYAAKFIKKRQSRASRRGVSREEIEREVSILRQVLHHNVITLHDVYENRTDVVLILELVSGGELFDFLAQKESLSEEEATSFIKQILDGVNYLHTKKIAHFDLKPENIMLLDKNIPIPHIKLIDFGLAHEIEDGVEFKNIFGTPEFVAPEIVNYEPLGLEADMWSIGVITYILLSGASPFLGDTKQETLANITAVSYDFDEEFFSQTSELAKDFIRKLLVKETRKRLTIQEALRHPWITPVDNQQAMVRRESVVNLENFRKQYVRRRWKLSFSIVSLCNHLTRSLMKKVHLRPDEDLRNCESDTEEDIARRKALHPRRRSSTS

COc1cc(O)c(CC=C(C)C)c(O)c1C(=O)/C=C/c1ccc(O)cc1 [Xanthohumol, xanthohumol]
Kinase activity, % of Control (CDK1/cyclinB; 1 ug/ml): 118 % of Control
Kinase activity, % of Control (CDK1/cyclinB; 5 ug/ml): 103 % of Control
Kinase activity, % of Control (CDK1/cyclinB; 25 ug/ml): 46 % of Control
Kinase activity, % of Control (CDK1/cyclinB; 50 ug/ml): 18 % of Control
Kinase activity, % of Control (DAPK2; 1 ug/ml): 105 % of Control
Kinase activity, % of Control (DAPK2; 5 ug/ml): 88 % of Control
Kinase activity, % of Control (DAPK2; 25 ug/ml): 45 % of Control
Kinase activity, % of Control (DAPK2; 50 ug/ml): 26 % of Control
Kinase activity, % of Control (ErbB4; 1 ug/ml): 132 % of Control
Kinase activity, % of Control (ErbB4; 5 ug/ml): 85 % of Control
Kinase activity, % of Control (ErbB4; 25 ug/ml): 52 % of Control
Kinase activity, % of Control (ErbB4; 50 ug/ml): 27 % of Control
Kinase activity, % of Control (Fes; 1 ug/ml): 131 % of Control
Kinase activity, % of Control (Fes; 5 ug/ml): 106 % of Control
Kinase activity, % of Control (Fes; 25 ug/ml): 102 % of Control
Kinase activity, % of Control (Fes; 50 ug/ml): 26 % of Control
Kinase activity, % of Control (HIPK2; 1 ug/ml): 110 % of Control
Kinase activity, % of Control (HIPK2; 5 ug/ml): 98 % of Control
Kinase activity, % of Control (IGF-1R; 1 ug/ml): 107 % of Control
Kinase activity, % of Control (IGF-1R; 25 ug/ml): 129 % of Control
Kinase activity, % of Control (IGF-1R; 50 ug/ml): 139 % of Control
Kinase activity, % of Control (IR; 1 ug/ml): 120 % of Control
Kinase activity, % of Control (IR; 5 ug/ml): 108 % of Control
Kinase activity, % of Control (IR; 50 ug/ml): 103 % of Control
Kinase activity, % of Control (MAPKAP-K2; 1 ug/ml): 99 % of Control
Kinase activity, % of Control (MAPKAP-K2; 5 ug/ml): 95 % of Control
Kinase activity, % of Control (MAPKAP-K2; 25 ug/ml): 6 % of Control
Kinase activity, % of Control (MAPKAP-K2; 50 ug/ml): 8 % of Control
Kinase activity, % of Control (PKCβII; 1 ug/ml): 108 % of Control
Kinase activity, % of Control (PKCβII; 5 ug/ml): 108 % of Control
Kinase activity, % of Control (PKCβII; 25 ug/ml): 71 % of Control
Kinase activity, % of Control (PKCβII; 50 ug/ml): 79 % of Control
Kinase activity, % of Control (TrkB; 1 ug/ml): 95 % of Control
Kinase activity, % of Control (TrkB; 5 ug/ml): 89 % of Control
Kinase activity, % of Control (TrkB; 25 ug/ml): 58 % of Control
Kinase activity, % of Control (TrkB; 50 ug/ml): 3 % of Control
Kinase activity, % of Control (TSSK2; 1 ug/ml): 102 % of Control
Kinase activity, % of Control (TSSK2; 5 ug/ml): 95 % of Control
Kinase activity, % of Control (TSSK2; 25 ug/ml): 61 % of Control
Kinase activity, % of Control (TSSK2; 50 ug/ml): 48 % of Control
Kinase activity, % of Control (cKit(D816H); 1 ug/ml): 94 % of Control
Kinase activity, % of Control (cKit(D816H); 5 ug/ml): 45 % of Control
Kinase activity, % of Control (cKit(D816H); 25 ug/ml): 14 % of Control
Kinase activity, % of Control (PhKγ2; 1 ug/ml): 106 % of Control
Kinase activity, % of Control (PhKγ2; 5 ug/ml): 60 % of Control
Kinase activity, % of Control (PhKγ2; 25 ug/ml): 11 % of Control
Kinase activity, % of Control (PhKγ2; 50 ug/ml): 5 % of Control
